Results: US20080241234A1, “PHARMACEUTICAL FORMULATIONS OF AN ANHYDRATE CRYSTAL FORM OF 2-(3-FLUORO-4-HYDROXYPHENYL)-7-VINYL-1,3-BENZOXAZOL-5-OL” (WYETH, priority 2006, published 2008)

Test: Crystal form conversion on suspending and stirring in a solvent at room temperature
Type: physicochemical
Source text: The anhydrate crystal form (Form E) can be converted to other crystal forms under suitable conditions. […] 6, 2006).

crystal form obtained after suspension and stirring in water (suspended and stirred in water at room temperature for seven days): converted to a hydrate crystal form
Structure (SMILES): C=Cc1cc(O)cc2nc(-c3ccc(O)c(F)c3)oc12 [Form E, 2-(3-fluoro-4-hydroxyphenyl)-7-vinyl-1,3-benzoxazol-5-ol]
crystal form obtained after suspension and stirring in ethanol or acetone (suspended and stirred in ethanol or acetone at room temperature for seven days): another anhydrate crystal form is obtained
